Data reported in patent publication US10100331B2, “Reagent for gene-drug therapeutics” (Agency for Science, Technology and Research, priority 2012, dated 2018).
pIC50: −log10 of the molar value.

What was measured:
HDAC3 = HDAC3 (Homo sapiens, UniProt O15379); settings: Targeted HDAC/Sirtuin: 3; cited from earlier work
HDAC1 = HDAC1 (Homo sapiens, UniProt Q13547); settings: Targeted HDAC/Sirtuin: 1; cited from earlier work
HDAC2 = HDAC2 (Homo sapiens, UniProt Q92769); settings: Targeted HDAC/Sirtuin: 2; cited from earlier work
Neuro2A cells = assay: Transfection of Neuro2A cells with PKC inhibitor; assay type: cell-based; settings: 2 μM, 45 min prior and after transfection; LPEI/pDNA N/P=20; 24 h
Procedure: Neuro2A cells were treated with GÖ6983 (2 μM) for 45 min prior transfection. Transfection mixture (LPEI/pDNA at N/P=20) was replaced with DMEM containing 0.5% FBS and GÖ6983 (2 μM). Representative images (acquired 24 h post transfection) were shown.

HDAC8 = target: T1, HDAC8 (Homo sapiens, UniProt Q9BY41); settings: Targeted HDAC/Sirtuin: 8; cited from earlier work
T1 sequence (Q9BY41 1-377): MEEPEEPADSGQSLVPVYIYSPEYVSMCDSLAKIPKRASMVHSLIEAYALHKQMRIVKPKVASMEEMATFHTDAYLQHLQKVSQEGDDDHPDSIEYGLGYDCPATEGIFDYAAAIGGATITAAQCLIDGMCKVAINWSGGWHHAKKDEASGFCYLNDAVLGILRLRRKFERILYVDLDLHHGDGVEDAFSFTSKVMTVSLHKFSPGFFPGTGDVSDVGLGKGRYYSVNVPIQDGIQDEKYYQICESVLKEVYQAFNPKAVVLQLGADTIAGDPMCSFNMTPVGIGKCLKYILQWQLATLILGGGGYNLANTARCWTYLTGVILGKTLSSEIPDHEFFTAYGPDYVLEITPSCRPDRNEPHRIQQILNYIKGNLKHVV

HDAC6 = target: T2, HDAC6 (Homo sapiens, UniProt Q9UBN7); settings: Targeted HDAC/Sirtuin: 6; cited from earlier work
T2 sequence (Q9UBN7 1-1215): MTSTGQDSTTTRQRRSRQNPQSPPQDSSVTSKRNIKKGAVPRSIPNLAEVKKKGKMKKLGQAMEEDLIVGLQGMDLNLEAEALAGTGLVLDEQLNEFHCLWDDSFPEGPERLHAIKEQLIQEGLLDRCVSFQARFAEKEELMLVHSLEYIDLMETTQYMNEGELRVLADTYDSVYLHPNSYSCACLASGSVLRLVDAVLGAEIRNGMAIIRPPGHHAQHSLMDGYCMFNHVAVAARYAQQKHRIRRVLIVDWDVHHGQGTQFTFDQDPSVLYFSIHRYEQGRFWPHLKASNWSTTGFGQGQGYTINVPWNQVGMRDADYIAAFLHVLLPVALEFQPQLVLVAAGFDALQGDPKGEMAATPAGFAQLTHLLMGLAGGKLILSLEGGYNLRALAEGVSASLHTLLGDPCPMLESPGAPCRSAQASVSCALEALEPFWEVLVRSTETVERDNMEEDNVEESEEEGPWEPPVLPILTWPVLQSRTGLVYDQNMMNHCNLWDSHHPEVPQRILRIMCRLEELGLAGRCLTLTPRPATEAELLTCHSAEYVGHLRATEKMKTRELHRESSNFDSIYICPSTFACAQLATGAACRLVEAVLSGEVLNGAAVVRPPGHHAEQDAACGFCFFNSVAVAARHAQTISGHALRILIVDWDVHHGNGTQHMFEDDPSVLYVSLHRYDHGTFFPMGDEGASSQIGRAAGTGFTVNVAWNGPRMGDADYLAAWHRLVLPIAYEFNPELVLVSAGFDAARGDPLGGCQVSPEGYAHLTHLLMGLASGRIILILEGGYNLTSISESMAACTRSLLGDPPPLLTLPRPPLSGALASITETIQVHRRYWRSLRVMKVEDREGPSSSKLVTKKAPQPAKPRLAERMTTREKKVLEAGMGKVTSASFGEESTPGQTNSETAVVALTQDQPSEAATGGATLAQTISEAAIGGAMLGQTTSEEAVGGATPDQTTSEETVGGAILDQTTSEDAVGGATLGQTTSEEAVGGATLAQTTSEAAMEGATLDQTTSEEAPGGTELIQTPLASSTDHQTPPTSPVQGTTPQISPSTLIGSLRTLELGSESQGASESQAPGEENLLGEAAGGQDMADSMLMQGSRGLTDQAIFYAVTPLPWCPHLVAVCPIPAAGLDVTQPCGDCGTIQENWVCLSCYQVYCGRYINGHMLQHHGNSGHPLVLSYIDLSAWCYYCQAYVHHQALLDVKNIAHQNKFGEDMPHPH

Sequence of HDAC3 (O15379 whole entry): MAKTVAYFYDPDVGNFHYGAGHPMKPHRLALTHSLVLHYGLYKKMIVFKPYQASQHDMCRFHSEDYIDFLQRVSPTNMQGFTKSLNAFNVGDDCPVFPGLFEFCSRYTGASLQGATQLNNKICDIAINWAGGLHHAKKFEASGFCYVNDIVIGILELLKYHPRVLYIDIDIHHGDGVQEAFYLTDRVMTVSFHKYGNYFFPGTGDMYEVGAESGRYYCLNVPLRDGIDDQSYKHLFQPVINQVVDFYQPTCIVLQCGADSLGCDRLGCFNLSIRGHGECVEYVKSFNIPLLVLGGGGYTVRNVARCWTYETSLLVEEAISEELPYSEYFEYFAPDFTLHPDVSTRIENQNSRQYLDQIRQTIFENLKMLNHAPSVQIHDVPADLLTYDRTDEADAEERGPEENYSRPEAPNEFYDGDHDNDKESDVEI
Sequence of HDAC3 (Q9Y618 395-489 partner limits assumed): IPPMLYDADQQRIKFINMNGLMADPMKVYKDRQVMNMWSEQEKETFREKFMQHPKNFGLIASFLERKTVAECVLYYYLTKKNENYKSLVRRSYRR
Sequence of HDAC1 (Q13547 whole entry, species assumed): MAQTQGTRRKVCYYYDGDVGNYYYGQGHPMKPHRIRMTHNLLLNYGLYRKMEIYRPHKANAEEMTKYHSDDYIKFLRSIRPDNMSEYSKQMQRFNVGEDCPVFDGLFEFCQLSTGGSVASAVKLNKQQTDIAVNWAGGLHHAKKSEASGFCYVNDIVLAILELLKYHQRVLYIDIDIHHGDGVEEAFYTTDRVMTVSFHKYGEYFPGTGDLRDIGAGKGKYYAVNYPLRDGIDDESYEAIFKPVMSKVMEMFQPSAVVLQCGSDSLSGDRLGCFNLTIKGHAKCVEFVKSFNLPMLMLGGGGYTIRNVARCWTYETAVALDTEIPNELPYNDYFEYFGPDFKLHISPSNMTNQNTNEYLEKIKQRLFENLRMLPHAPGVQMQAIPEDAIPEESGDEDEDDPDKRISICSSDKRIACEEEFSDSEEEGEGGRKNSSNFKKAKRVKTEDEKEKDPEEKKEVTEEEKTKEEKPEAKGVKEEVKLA
Sequence of HDAC2 (Q92769 whole entry): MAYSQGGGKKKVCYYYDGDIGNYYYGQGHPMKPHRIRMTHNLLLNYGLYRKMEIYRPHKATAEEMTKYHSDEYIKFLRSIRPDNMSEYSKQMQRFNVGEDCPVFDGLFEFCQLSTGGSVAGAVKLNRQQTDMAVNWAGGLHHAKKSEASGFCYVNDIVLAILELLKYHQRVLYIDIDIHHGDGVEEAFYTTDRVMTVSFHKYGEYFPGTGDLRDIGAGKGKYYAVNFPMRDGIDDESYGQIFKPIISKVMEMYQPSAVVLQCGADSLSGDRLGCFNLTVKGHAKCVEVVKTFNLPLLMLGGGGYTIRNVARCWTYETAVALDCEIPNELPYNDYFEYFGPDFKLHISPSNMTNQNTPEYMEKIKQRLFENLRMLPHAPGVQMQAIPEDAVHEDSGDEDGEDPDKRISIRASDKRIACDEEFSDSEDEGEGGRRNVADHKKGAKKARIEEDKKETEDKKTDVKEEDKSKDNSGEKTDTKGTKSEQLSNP

| SMILES | pIC50 (HDAC3) | pIC50 (HDAC1) | pIC50 (HDAC2) | transfection (Neuro2A cells) | pIC50 (HDAC8) | pIC50 (HDAC6) |
| --- | --- | --- | --- | --- | --- | --- |
| Nc1ccccc1NC(=O)CCCCCCC(=O)Nc1ccccc1 [BML-210] | 5.58 | 4.82 | 4.96 |  |  |  |
| COc1ccc2c(c1)c(C1=C(c3c[nH]c4ccccc34)C(=O)NC1=O)cn2CCCN(C)C [GÖ6983] |  |  |  | substantially reduced transfection |  |  |
| CCCCOc1ccc(CC(=O)NO)cc1 [Bufexamac] | 3.47 |  |  |  | 3.63 | 4.97 |
